Measurements: article PMC11790914, “Chemogenomics for steroid hormone receptors (NR3)” (Communications Chemistry, 2025)
Where “and” joins values, the source holds several entries; their conditions need not be identical. Identical values can stand only once. Like-named read-outs stand apart in the source and are kept apart here.

Experiments:
[1] = tested on: HEK293T cells; assay: Cytotoxicity: necrosis induction (red fluorescent dye for permeable plasma membranes); format: cell-based; settings: 1 µM, 24 h, necrotic cell count normalized to 0.1% DMSO, single replicates;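 also: compounds applied in DMEM high glucose with 0.1% FCS and 0.1% DMSO, necrotic HEK293T cells counted by red staining of cells whose plasma membranes had become permeable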
Method: Cells were incubated with the test compounds at the indicated concentrations solubilized with 0.1% DMSO for 24 h. […] Necrotic cells were detected with a red fluorescent dye that labels cells with permeable plasma membranes after 24 h treatment and the necrotic cell count was normalized to 0.1% DMSO treated cells (n = 4). e NR family selectivity profiling of NR3 CG compound candidates in uniform Gal4-hybrid reporter gene assays for selected NR representing the NR1, NR2, NR4 and NR5 families.
HEK293T cells (German Collection of Microorganisms and Cell Culture GmbH, DSMZ; #ACC305) were cultured in DMEM high glucose, supplemented with 10% fetal calf serum (FCS), sodium pyruvate (1 mM), penicillin (100 µ/mL) and streptomycin (100 µg/mL) at 37 °C and 5% (v/v) CO2, and seeded in pre-coated (10 µg/mL collagen G solution (Merck KgaA; #L7213) for 30 min at 37 °C) 96-well plates (2 × 10^5 cells per well). After 24 h, the cells were treated with the respective NR3 CG compound candidate at the recommended concentration, bexarotene (100 µM) or doxorubicin (30 µM) as positive controls in DMEM high glucose supplemented with 0.1% FCS, penicillin (100 µ/mL), streptomycin (100 µg/mL) and 0.1% DMSO, or 0.1% DMSO alone as an untreated control. Each sample was prepared in at least four biologically independent replicates. […] Before drug administration, after the first medium exchange, 24 h after drug administration, and after fluorescence imaging cell confluence was assessed using the Tecan Spark Cyto, to account for changes in cell confluence due to drug administration and cell handling. Compound effects on cell confluence, apoptosis, metabolic activity and necrosis were normalized to the vehicle control of each biological replicate individually.

[2] = tested on: Gal4-VP16; format: cell-based; settings: 1 µM; vs. DMSO ctrl; single replicates n=1-3
[3] = target: T1, ABL1 (Homo sapiens, UniProt P00519); assay: Liability panel screening by DSF: ABL1; format: binding; settings: DSF, 20 µM, n=2; read-out: Mean ΔTM ABL1
T1 construct: made in house
T1 sequence (P00519 whole entry, species assumed): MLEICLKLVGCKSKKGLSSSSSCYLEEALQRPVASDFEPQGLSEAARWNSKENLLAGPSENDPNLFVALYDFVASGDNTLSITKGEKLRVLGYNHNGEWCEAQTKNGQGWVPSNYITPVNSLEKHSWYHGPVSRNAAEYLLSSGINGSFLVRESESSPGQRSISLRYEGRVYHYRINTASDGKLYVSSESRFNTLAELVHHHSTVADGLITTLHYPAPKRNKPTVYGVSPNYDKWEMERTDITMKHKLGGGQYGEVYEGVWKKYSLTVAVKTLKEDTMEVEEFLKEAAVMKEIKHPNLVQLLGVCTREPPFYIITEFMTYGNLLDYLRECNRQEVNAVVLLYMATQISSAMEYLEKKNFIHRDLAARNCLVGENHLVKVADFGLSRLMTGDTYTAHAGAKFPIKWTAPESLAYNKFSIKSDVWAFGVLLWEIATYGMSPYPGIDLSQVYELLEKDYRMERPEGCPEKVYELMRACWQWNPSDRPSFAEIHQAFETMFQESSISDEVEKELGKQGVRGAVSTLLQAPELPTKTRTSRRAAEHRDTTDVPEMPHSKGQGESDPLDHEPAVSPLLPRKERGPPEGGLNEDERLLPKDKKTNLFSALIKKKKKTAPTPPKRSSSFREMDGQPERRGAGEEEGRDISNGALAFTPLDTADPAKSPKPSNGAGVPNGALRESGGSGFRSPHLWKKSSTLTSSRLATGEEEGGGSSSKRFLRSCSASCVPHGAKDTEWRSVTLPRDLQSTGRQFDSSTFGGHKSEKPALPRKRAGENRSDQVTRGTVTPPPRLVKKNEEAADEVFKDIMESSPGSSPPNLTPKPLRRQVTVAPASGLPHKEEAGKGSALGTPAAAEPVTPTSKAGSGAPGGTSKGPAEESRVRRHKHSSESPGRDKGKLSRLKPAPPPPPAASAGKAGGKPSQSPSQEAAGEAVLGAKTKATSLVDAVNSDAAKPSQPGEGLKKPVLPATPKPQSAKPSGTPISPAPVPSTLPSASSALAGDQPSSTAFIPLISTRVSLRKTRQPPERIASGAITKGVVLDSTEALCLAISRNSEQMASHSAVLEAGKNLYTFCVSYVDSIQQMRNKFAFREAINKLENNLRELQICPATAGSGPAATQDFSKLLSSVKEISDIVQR
How it was run: (§1)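 Recombinant protein at 2 µM in 10 mM HEPES pH 7.5 with 500 mM NaCl was mixed with SYPRO Orange (1:1000) and heated at 3 °C/min up to 85 °C. Tm was taken as the Boltzmann-fit inflection point. Shifts are ∆Tm in K from technical duplicates.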

[4] = target: T2, AURKA (Homo sapiens, UniProt O14965); assay: Liability panel screening by DSF: AURKA; format: binding; settings: DSF, 20 µM, n=2; read-out: Mean ΔTM AURKA
T2 construct: made in house
T2 sequence (O14965 1-403): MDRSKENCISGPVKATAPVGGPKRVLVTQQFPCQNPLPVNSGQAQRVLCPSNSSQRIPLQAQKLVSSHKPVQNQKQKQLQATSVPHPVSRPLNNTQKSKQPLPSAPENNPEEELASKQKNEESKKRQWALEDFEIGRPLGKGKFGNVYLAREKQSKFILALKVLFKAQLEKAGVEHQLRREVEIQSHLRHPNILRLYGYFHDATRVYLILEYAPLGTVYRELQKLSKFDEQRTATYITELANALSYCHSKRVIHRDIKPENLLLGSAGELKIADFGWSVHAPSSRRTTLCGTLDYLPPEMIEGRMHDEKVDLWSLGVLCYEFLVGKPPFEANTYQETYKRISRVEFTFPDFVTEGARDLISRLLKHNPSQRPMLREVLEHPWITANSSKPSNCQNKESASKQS
How it was run: as §1

[5] = target: T3, CDK2 (Homo sapiens, UniProt P24941); assay: Liability panel screening by DSF: CDK2; format: binding; settings: DSF, 20 µM, n=2; read-out: Mean ΔTM CDK2
T3 construct: made in house
How it was run: as §1

[6] = target: T4, FGFR3 (Homo sapiens, UniProt P22607); assay: Liability panel screening by DSF: FGFR3; format: binding; settings: DSF, 20 µM, n=2; read-out: Mean ΔTM FGFR3
T4 construct: made in house
T4 sequence (P22607 23-806, species assumed): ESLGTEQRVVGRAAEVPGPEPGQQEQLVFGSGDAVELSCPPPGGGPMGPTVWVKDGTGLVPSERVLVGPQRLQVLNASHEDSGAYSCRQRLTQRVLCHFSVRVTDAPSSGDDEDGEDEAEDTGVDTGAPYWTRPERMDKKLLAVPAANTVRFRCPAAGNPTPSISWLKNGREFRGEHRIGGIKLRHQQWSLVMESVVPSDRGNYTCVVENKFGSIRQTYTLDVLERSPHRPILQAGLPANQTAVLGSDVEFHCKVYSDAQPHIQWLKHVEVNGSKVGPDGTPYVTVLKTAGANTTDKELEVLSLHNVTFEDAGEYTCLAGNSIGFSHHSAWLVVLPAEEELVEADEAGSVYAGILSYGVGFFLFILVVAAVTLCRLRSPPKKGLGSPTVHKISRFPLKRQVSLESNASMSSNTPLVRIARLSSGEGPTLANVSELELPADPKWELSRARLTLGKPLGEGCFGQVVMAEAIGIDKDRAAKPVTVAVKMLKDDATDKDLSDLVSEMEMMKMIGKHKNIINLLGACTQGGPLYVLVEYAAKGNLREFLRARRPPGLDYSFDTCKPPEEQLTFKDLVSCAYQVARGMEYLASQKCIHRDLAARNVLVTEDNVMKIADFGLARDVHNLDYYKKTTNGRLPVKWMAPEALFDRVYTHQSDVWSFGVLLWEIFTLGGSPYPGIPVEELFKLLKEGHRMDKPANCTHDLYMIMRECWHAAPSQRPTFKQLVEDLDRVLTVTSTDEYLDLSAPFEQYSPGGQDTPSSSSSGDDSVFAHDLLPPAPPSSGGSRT
How it was run: as §1

[7] = target: T5, GSK3B (Homo sapiens, UniProt P49841); assay: Liability panel screening by DSF: GSK3B; format: binding; settings: DSF, 20 µM, n=2; read-out: Mean ΔTM GSK3B
T5 construct: made in house
T5 sequence (P49841 whole entry, species assumed): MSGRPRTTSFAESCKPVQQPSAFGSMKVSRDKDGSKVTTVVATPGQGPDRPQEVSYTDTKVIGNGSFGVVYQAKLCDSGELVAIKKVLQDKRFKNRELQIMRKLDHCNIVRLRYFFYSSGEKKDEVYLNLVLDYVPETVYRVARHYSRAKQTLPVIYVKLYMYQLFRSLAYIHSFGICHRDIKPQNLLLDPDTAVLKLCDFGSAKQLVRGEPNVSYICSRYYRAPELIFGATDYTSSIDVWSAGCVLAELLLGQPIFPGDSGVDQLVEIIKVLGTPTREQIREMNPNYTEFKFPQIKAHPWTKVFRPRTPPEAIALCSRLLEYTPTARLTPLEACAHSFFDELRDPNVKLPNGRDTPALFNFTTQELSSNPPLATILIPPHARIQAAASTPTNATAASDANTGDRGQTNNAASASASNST

[8] = target: T6, BRD4 (Homo sapiens, UniProt O60885); assay: Liability panel screening by DSF: BRD4; format: binding; settings: DSF, 20 µM, n=2; read-out: Mean ΔTM BRD4
T6 construct: This panel comprised ten highly ligandable kinases and bromodomains; made in house
How it was run: as §1

[9] = target: T7, BRPF1 (Homo sapiens, UniProt P55201); assay: Liability panel screening by DSF: BRPF1; format: binding; settings: read-out: Mean ΔTM BRPF1
T7 construct: This panel comprised ten highly ligandable kinases and bromodomains; made in house
T7 sequence (P55201 628-732 limits assumed): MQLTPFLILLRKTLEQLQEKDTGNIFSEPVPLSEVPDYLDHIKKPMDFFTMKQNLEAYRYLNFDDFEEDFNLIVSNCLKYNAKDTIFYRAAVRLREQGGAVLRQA
How it was run: as §1

[10] = target: T8, CSNK1D (Homo sapiens, UniProt P48730); assay: Liability panel screening by DSF: CSNK1D; format: binding; settings: DSF, 20 µM, n=2; read-out: Mean ΔTM CSNK1D
T8 construct: made in house
T8 sequence (P48730 whole entry, species assumed): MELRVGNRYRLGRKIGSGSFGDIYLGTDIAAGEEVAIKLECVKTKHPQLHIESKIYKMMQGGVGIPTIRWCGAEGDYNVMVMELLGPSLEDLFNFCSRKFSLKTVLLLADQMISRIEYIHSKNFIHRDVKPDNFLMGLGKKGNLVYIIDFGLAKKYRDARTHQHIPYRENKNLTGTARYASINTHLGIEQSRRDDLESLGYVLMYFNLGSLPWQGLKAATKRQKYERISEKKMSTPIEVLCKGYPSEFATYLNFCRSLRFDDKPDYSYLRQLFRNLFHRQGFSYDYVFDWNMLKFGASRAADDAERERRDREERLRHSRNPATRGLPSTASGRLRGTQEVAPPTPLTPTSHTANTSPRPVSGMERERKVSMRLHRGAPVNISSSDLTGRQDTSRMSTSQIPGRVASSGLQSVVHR
How it was run: as §1

[11] = target: T9, MAPK1 (Homo sapiens, UniProt P28482); assay: Liability panel screening by DSF: MAPK1; format: binding; settings: DSF, 20 µM, n=2; read-out: Mean ΔTM MAPK1
T9 construct: made in house
T9 sequence (P28482 whole entry, species assumed): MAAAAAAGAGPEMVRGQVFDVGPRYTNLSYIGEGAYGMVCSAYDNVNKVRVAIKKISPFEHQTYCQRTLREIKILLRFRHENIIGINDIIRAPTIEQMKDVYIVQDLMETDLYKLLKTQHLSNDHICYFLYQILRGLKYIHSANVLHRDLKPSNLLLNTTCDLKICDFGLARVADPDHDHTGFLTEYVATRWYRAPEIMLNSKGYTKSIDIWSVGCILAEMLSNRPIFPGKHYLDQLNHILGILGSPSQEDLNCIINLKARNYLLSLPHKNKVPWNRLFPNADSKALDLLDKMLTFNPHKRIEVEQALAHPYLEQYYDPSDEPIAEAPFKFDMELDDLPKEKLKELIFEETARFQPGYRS
How it was run: as §1

[12] = target: T10, TRIM24 (Homo sapiens, UniProt O15164); assay: Liability panel screening by DSF: TRIM24; format: binding; settings: DSF, 20 µM, n=2; read-out: Mean ΔTM TRIM24
T10 construct: This panel comprised ten highly ligandable kinases and bromodomains; made in house
T10 sequence (O15164 899-1004 limits assumed): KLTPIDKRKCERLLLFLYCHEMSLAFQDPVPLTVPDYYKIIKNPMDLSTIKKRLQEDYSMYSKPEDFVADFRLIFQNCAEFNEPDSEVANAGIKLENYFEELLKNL
How it was run: as §1

[13] = tested on: NF-κB activity in HEK293 NF-κB reporter cells; assay: NF-kB activity assay (GFP reporter, ionomycin/PMA); format: cell-based; settings: for Mean NFκB response: n=3
How it was run: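 Reporter readout: GFP-expressing cells normalized to confluence, imaged every 90 min across 24 h after ionomycin (100 ng/mL)/PMA (10 ng/mL) stimulation of HEK293 cells pre-treated 4 h with compound (0.1% DMSO); triplicate independent experiments.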

[14] = tested on: ATF6 activity in Hela ATF6 reporter cells; assay: Endoplasmic reticulum stress assay (ATF6 Renilla luciferase reporter, tunicamycin); format: cell-based; settings: for activity at 1 µM: Homo sapiens, HeLa, single replicates n=1 to n=5, read-out: ER stress [rel. ATF6 activity]
How it was run: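 ER stress was induced by 100 ng/mL tunicamycin added 4 h after compound (0.1% DMSO) to HeLa ATF6 reporter cells. After 18 h more, Renilla luciferase signal was read and expressed relative to DMSO control, n=5 biological replicates.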

[15] = tested on: NR3C1 (GR); settings: cited from earlier work
[16] = tested on: NR3C2 (MR); settings: cited from earlier work
[17] = tested on: HEK293T cells; assay: Cytotoxicity: metabolic activity (WST-8 / CCK-8 assay); settings: 1 µM; HEK293T, 24 h; WST-8; normalized to 0.1% DMSO; single replicates
Method: (§2) Cells were incubated with the test compounds at the indicated concentrations solubilized with 0.1% DMSO for 24 h. Growth-rate was determined based on the change in confluence over 24 h normalized to the change in confluence of cells treated with the 0.1% DMSO control (n = 10). Metabolic activity was determined with a water-soluble tetrazolium-8 (WST-8) assay (n = 8) after 24 h treatment. Apoptotic cells were detected with a fluorogenic DNA dye coupled to the caspase-3/7 recognition sequence (DEVD) after 24 h treatment and the apoptotic cell count was normalized to 0.1% DMSO treated cells (n = 6).
(§3) HEK293T cells (German Collection of Microorganisms and Cell Culture GmbH, DSMZ; #ACC305) were cultured in DMEM high glucose, supplemented with 10% fetal calf serum (FCS), sodium pyruvate (1 mM), penicillin (100 µ/mL) and streptomycin (100 µg/mL) at 37 °C and 5% (v/v) CO2, and seeded in pre-coated (10 µg/mL collagen G solution (Merck KgaA; #L7213) for 30 min at 37 °C) 96-well plates (2 × 10^5 cells per well). After 24 h, the cells were treated with the respective NR3 CG compound candidate at the recommended concentration, bexarotene (100 µM) or doxorubicin (30 µM) as positive controls in DMEM high glucose supplemented with 0.1% FCS, penicillin (100 µ/mL), streptomycin (100 µg/mL) and 0.1% DMSO, or 0.1% DMSO alone as an untreated control. Each sample was prepared in at least four biologically independent replicates. […] Thereafter, the medium was aspirated and the cells were incubated for 3 h with 90 µL DMEM high glucose supplemented with 0.2% FCS, penicillin (100 µ/mL) and streptomycin (100 µg/mL) and additionally containing 10 µL Cell Counting Kit 8 solution (CCK-8; MedChemExpress, Monmouth Junction, New York, USA; #HY-K0301), and absorbance was measured at 1 h, 2 h and 3 h of incubation at 450 nm on a Tecan Spark Cyto to assess metabolic activity of the cells. Before drug administration, after the first medium exchange, 24 h after drug administration, and after fluorescence imaging cell confluence was assessed using the Tecan Spark Cyto, to account for changes in cell confluence due to drug administration and cell handling. Compound effects on cell confluence, apoptosis, metabolic activity and necrosis were normalized to the vehicle control of each biological replicate individually.

[18] = tested on: HEK293T cells; assay: Cytotoxicity: growth-rate (change in confluence over 24 h); settings: 1 µM, normalized to 0.1% DMSO control, single replicates (n=1...)
[19] = tested on: HEK293T cells; assay: Cytotoxicity: apoptosis induction (caspase-3/7 DEVD fluorogenic DNA dye); settings: 1 µM; HEK293T, 24 h; apoptotic cell count normalized to 0.1% DMSO; single replicates
Method: as §2, §3

SMILES	Necrosis induction [NI] [1]	ΔTm at 20 µM [3]	ΔTm at 20 µM [4]	ΔTm at 20 µM [5]	ΔTm at 20 µM [6]	ΔTm at 20 µM [7]	ΔTm at 20 µM [8]	ΔTm at 20 µM [10]	ΔTm at 20 µM [11]	ΔTm at 20 µM [12]	Mean NFκB response ([13]; 1 µM, 1,5 h)	Mean NFκB response ([13]; 1 µM, 4,5 h)	Mean NFκB response ([13]; 1 µM, 7,5 h)	Mean NFκB response ([13]; 1 µM, 10,5 h)	Mean NFκB response ([13]; 1 µM, 13,5 h)	Mean NFκB response ([13]; 1 µM, 16,6 h)	Mean NFκB response ([13]; 1 µM, 19,5 h)	Mean NFκB response ([13]; 1 µM, 22,5 h)	Mean NFκB response ([13]; 1 µM, 3 h)	Mean NFκB response ([13]; 1 µM, 6 h)	also measured
CC(=O)OCC(=O)[C@@]1(O)CC[C@H]2[C@@H]3CCC4=CC(=O)CC[C@]4(C)[C@@]3(F)[C@@H](O)C[C@@]21C [Fludrocortisone acetate]	1.13 and 1.14 and 1.54 and 1.19	-0.12 °C	0.09 °C	-0.73 °C	-0.06 °C	-0.61 °C	-0.79 °C	-0.08 °C	0.55 °C	-0.96 °C	3820.94 GFP+-cells/confluence ∙ 1000	4296.72 GFP+-cells/confluence ∙ 1000	6095.26 GFP+-cells/confluence ∙ 1000	8052.10 GFP+-cells/confluence ∙ 1000	9784.85 GFP+-cells/confluence ∙ 1000	11376.50 GFP+-cells/confluence ∙ 1000	12926.78 GFP+-cells/confluence ∙ 1000	13912.05 GFP+-cells/confluence ∙ 1000	3762.70 GFP+-cells/confluence ∙ 1000	5124.39 GFP+-cells/confluence ∙ 1000	VP16 control [fold reporter gene activity] [2]: 0.96 fold reporter gene activity and 0.81 fold reporter gene activity and 0.89 fold reporter gene activity; ΔTm at 20 µM ([9]; DSF, 20 µM, n=2): -0.43 °C; Mean NFκB response ([13]; 1 µM, 9 h): 7003.20 GFP+-cells/confluence ∙ 1000; Mean NFκB response ([13]; 1 µM, 12 h): 8806.82 GFP+-cells/confluence ∙ 1000; Mean NFκB response ([13]; 1 µM, 15 h): 10595.86 GFP+-cells/confluence ∙ 1000; Mean NFκB response ([13]; 1 µM, 18 h): 12286.70 GFP+-cells/confluence ∙ 1000; Mean NFκB response ([13]; 1 µM, 21 h): 13535.05 GFP+-cells/confluence ∙ 1000; Mean NFκB response ([13]; 1 µM, 24 h): 14315.67 GFP+-cells/confluence ∙ 1000; NF-κB activity (inflammatory response to ionomycin/PMA) ([13]; HEK293 NF-κB reporter cells, compounds at recommended concentrations, imaged over 24 h, n = 3): consistently delayed and strongly diminished NF-κB activity; ATF6 activity (tunicamycin-induced endoplasmic reticulum stress) ([14]; Hela ATF6 reporter cells, tunicamycin 100 ng/mL, 18 h, compounds at recommended concentrations, n = 5): Consistently weaker ATF6 activity; activity at 1 µM [14]: 82%; EC50 ([15]; (lit.), ref Supplementary Table 1, read-out: Potency [nM] EC50, NR3C1 (GR)): 4 nM; rel. activity from literature, NR3C1 (GR): fold activation [15]: ~ 1000 fold; rel. activity from literature, NR3C2 (MR): fold activation [16]: ~ 41 fold; Metabolic activity [MA] [17]: 1.08 (2×) and 0.93 and 1.06 and 1.01 and 0.96 and 1.04 and 1.00; Growth rate [GR] [18]: 1.03 and 5.01 and 1.16 and 1.40 and 1.04 and 0.96 and 0.90 and 1.39 and 3.00 and 9.23; Apoptosis induction [AI] [19]: 1.14 and 1.39 and 1.56 and 1.37 and 1.13 and 1.61
C[C@]12CCC(=O)C=C1CC[C@@H]1[C@@H]2[C@@H](O)C[C@]2(C=O)[C@@H](C(=O)CO)CC[C@@H]12 [Aldosterone]	0.75 and 0.67 and 0.68 and 0.72	-0.26 °C	0.1 °C	-0.06 °C	-0.16 °C	-0.23 °C	0.17 °C	-2.48e-05 °C	0.17 °C	-0.91 °C	2799.98 GFP+-cells/confluence ∙ 1000	3728.04 GFP+-cells/confluence ∙ 1000	7006.53 GFP+-cells/confluence ∙ 1000	14006.47 GFP+-cells/confluence ∙ 1000	19614.51 GFP+-cells/confluence ∙ 1000	24279.62 GFP+-cells/confluence ∙ 1000	27366.03 GFP+-cells/confluence ∙ 1000	29896.67 GFP+-cells/confluence ∙ 1000	3180.38 GFP+-cells/confluence ∙ 1000	4651.42 GFP+-cells/confluence ∙ 1000	ΔTm at 20 µM [9]: -1.02 °C; Mean NFκB response ([13]; 1 µM, 9 h): 10914.09 GFP+-cells/confluence ∙ 1000; Mean NFκB response ([13]; 1 µM, 12 h): 17161.43 GFP+-cells/confluence ∙ 1000; Mean NFκB response ([13]; 1 µM, 15 h): 22438.14 GFP+-cells/confluence ∙ 1000; Mean NFκB response ([13]; 1 µM, 18 h): 25981.67 GFP+-cells/confluence ∙ 1000; Mean NFκB response ([13]; 1 µM, 21 h): 28773.18 GFP+-cells/confluence ∙ 1000; Mean NFκB response ([13]; 1 µM, 24 h): 30941.17 GFP+-cells/confluence ∙ 1000; activity at 1 µM [14]: 80%; EC50 ([16]; (lit.), ref Supplementary Table 1, read-out: Potency [nM] EC50, NR3C2 (MR)): 0.34 ± 0.04 nM; Metabolic activity [MA] [17]: 1.07 (2×) and 1.02 and 0.98 and 1.08 and 0.99 (2×) and 0.93; Growth rate [GR] [18]: 0.87 and 0.57 and 0.92 and 1.28 and 0.95 and 0.82 and 0.93 and 0.54 and 0.81 and -0.31; Apoptosis induction [AI] [19]: 0.40 and 0.56 and 0.73 and 0.75 and 0.46 and 0.86
